Numbered stars: 1 amine (or outer) side, 2 acyl side, 3 side chain; on linkers, the order of the positions; unused ones are H or OH. Bridge positions count the residues as written; N and C are the ends. Square brackets hold non-standard residues; d marks the D form. Peptide text beside a SMILES is read from it. * marks the point of attachment. Trp(βS-Me,7-OMe) = COc1cccc2c([C@H](C)[C@H](N)C(=O)O)c[nH]c12; X17 = Cc1[nH]c2ccccc2c1[C@H](C)[C@H](N[*:1])C(=O)[*:2]; Trp(7-Cl) = N[C@@H](Cc1c[nH]c2c(Cl)cccc12)C(=O)O; Ala(pyrimidin-5-yl) = N[C@@H](Cc1cncnc1)C(=O)O; Phe(4-CONH2) = NC(=O)c1ccc(C[C@H](N)C(=O)O)cc1; Phe(4-COOH) = N[C@@H](Cc1ccc(C(=O)O)cc1)C(=O)O; Trp(7-aza) = N[C@@H](Cc1c[nH]c2ncccc12)C(=O)O; Pip(5R-OH) = O=C(O)[C@@H]1CC[C@@H](O)CN1; X1 = O=C([C@@H]1CC[C@H](N[*:1])C1)[*:2]; X14 = CC(C)CCC[C@H](N[*:1])C(=O)[*:2]; Pip(4-aza) = O=C(O)[C@@H]1CNCCN1; 4Pal = N[C@@H](Cc1ccncc1)C(=O)O; NMeE = CN[C@@H](CCC(=O)O)C(=O)O; dHyp = O=C(O)[C@H]1C[C@H](O)CN1; NMehSer = CN[C@@H](CCO)C(=O)O; NMeS = CN[C@@H](CO)C(=O)O; αMeS = C[C@](N)(CO)C(=O)O; Carboxymethyl = O=C(O)C*; Nle = CCCC[C@H](N)C(=O)O; NEtG = CCNCC(=O)O; Sar = CNCC(=O)O
Key:
[1] = target: T1, human TNFR1 extracellular domain (ECD) protein (Homo sapiens, UniProt P19438); experiment: SPR binding affinity to captured human TNFR1 ECD
T1 construct: HRV 3C protease cleavage site (C); 6His (C, cleaved yes); made in house; host or cells: Sf21 insect cells (baculovirus), secreted
T1 sequence (P19438 30-211): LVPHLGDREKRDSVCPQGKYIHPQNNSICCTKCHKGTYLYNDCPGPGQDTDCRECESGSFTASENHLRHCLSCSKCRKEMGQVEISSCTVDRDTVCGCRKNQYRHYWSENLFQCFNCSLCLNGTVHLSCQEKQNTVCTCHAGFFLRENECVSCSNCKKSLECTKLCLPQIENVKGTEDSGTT
Protocol: B. Procedure for Binding Affinity and Selectivity measured by SPR
Affinity and selectivity for hTNFR1 and TNFR2 was determined using SPR. Human TNFR1 or TNFR2 genes (extracellular domain only) were synthesized with a C-terminal Avi-tag, HRV 3C protease cleavage site followed by a 6His-tag for affinity purification. The final gene product was cloned into pBAC™-1 vector (Millipore Sigma) for expression testing in insect cells. Constructs were transfected into Sf21 cells for baculovirus generation followed by protein expression analysis in Sf21 and Tni cell lines. Large scale expression in Sf21 cells was performed using baculovirus infected insect cells (BIICs) infected at a MOI=2.0 grown for 72 h. Target proteins secreted into the media were harvested via centrifugation and concentrated using diafiltration. TNFR was purified by immobilized metal ion affinity chromatography (IMAC) using a Ni-Sepharose HisTrap™ column (Cytiva™). Isolated TNFR had His tag removed using HRV 3C protease followed by additional purification using Ni-NTA chromatography. Biotinylation was performed on Ni-NTA flow-through fractions concentrated to 45 μM and treated with BirA ligase (1:100, μg/μg ratio) in 50 mM Tris pH 7.5, 150 mM NaCl, 50 μM biotin, 10 mM magnesium acetate, 10 mM ATP at 4° C. for 20 h. Final purification of biotin-TNFR and buffer exchange into 20 mM HEPES pH 7.5, 150 mM NaCl was performed using a HiLoad® Superdex® 200 26/60 column (Cytiva™). Highly purified protein was aliquoted and stored at −80° C.
The SPR assay uses a Cytiva™ 8K or 8K+ biosensor instrument to measure the kinetics of peptide analytes binding to captured human TNFR1 extracellular domain (ECD) protein; peptide analytes are also evaluated for any off-target binding to human TNFR2 ECD protein in parallel. Recombinant human TNFR1 ECD and human TNFR2 ECD proteins, biotinylated via engineered C-terminal avi-tags, are immobilized to a regenerable streptavidin biosensor chip surface (Cytiva™ Biotin CAPture kit, Series S; cat. #28920234). Peptide analytes binding to immobilized human TNFR1 ECD protein and their subsequent dissociation are conducted in a buffer of 10 mM HEPES pH 7.4, 150 mM NaCl, 3 mM EDTA, 0.05% P20,2% DMSO under laminar flow conditions and measured in response units (RU), which are directly proportional to the accumulated mass on the surface of the biosensor chip; the biosensor chip surface is regenerated via Cytiva™ proprietary methods between the evaluation of each peptide analyte. […] The SPR assay determines the association and dissociation rate constants, kon and koff, for each peptide analyte and, from these values, calculates the binding affinity, […] reported in Table 2.

[2] = target: T2, TNFα-induced NF-κB signal transduction pathway (TNFR1 signaling) in THP-1 cells (Homo sapiens, UniProt P19438); experiment: THP-1 Lucia NF-κB reporter cell assay, inhibition of TNFα-induced NF-κB signaling; format: cell-based; conditions: THP-1 NF-κB Lucia reporter cells, 10 ng/mL TNFα, 16-18 h, secreted luciferase; read-out: THP-1 IC50
T2 sequence (P19438 30-455): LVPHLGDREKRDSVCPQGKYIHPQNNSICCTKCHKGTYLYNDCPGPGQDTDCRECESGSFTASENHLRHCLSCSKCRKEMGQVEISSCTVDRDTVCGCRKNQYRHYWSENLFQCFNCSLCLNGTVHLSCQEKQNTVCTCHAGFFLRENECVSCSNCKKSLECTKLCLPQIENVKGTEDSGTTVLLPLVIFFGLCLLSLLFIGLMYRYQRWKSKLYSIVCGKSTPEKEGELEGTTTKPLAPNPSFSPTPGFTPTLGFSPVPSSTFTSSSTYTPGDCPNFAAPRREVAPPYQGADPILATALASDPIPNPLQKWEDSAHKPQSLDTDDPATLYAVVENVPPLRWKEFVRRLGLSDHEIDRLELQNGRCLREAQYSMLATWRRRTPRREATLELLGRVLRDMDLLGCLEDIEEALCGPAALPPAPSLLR
Method in brief: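 Macrocyclic peptides were preincubated 1 h at 37 °C with THP-1 NF-κB-Lucia reporter cells (20,000 cells/well) in antibiotic-free RPMI 1640/10% FBS, then stimulated with 10 ng/mL human TNFα overnight (16-18 h). Secreted luciferase in supernatant was read by luminescence; IC50 from 4-parameter logistic fits.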

[3] = target: T3, human TNFR2 ECD protein (Homo sapiens, UniProt P20333); experiment: SPR off-target binding (selectivity) to human TNFR2 ECD
T3 construct: HRV 3C protease cleavage site (C); 6His (C, cleaved yes); made in house; host or cells: Sf21 insect cells (baculovirus), secreted
T3 sequence (P20333 23-257): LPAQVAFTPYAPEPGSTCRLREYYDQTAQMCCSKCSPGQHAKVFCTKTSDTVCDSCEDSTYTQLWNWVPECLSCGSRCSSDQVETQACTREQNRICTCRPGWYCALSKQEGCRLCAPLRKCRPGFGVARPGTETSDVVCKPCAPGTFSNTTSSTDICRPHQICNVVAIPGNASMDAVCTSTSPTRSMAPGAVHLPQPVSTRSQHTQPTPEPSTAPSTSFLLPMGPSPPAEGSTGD
Method in brief: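 Peptides are tested against captured biotin-tagged human TNFR1 ECD, with parallel TNFR2 ECD binding to check selectivity. Buffer: 10 mM HEPES pH 7.4, 150 mM NaCl, 3 mM EDTA, 0.05% P20, 2% DMSO.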

| SMILES | Kd [1] [nM] | IC50 [2] [nM] | Kd [3] [nM] |
| --- | --- | --- | --- |
| COc1cccc2c([C@H](C)[C@@H]3NC(=O)CN(C)C(=O)[C@H](Cc4ccc(O)cc4)NC(=O)[C@H](Cc4ccc(C(N)=O)cc4)NC(=O)[C@](C)(CO)NC(=O)[C@H](Cc4c[nH]c5c(Cl)cccc45)NC(=O)[C@H](Cc4ccc(C(=O)O)cc4)NC(=O)[C@H](CC(N)=O)NC(=O)[C@H](CCC(=O)O)N(C)C(=O)[C@H](Cc4c[nH]c5ccccc45)NC(=O)[C@@H]4CNCCN4C(=O)[C@H](Cc4ccncc4)NC(=O)[C@H](CCCC(C)C)NC(=O)CSC[C@@H](C(N)=O)NC3=O)c[nH]c12 [SEQ ID NO. 93] ({CH2CO}-[X14][4Pal][Pip(4-aza)]W[NMeE]N[Phe(4-COOH)][Trp(7-Cl)][αMeS][Phe(4-CONH2)]Y[Sar][Trp(βS-Me,7-OMe)]C-NH2; thioether N-14) | 0.78 | 2.7 | > 1000 |
| CCCC[C@@H]1NC(=O)[C@@H]2CC[C@@H](C2)NC(=O)[C@H]([C@@H](C)c2c[nH]c3c(OC)cccc23)NC(=O)CN(C)C(=O)[C@H](Cc2ccc(O)cc2)NC(=O)[C@H](Cc2ccc(C(=O)O)cc2)NC(=O)[C@](C)(CO)NC(=O)[C@H](Cc2c[nH]c3c(Cl)cccc23)NC(=O)[C@H](Cc2ccncc2)NC(=O)[C@H](CC(N)=O)NC(=O)CN(CC)C(=O)[C@H](Cc2c[nH]c3ccccc23)NC(=O)[C@@H]2CNCCN2C(=O)[C@H](Cc2ccncc2)NC1=O [SEQ ID NO. 94] (cyclo([4Pal][Trp(7-Cl)][αMeS][Phe(4-COOH)]Y[Sar][Trp(βS-Me,7-OMe)][X1][Nle][4Pal][Pip(4-aza)]W[NEtG]N)) | 0.07 | 0.8 | > 1000 |
| CCCC[C@@H]1NC(=O)[C@@H]2CC[C@@H](C2)NC(=O)[C@H]([C@@H](C)c2c[nH]c3c(OC)cccc23)NC(=O)CN(C)C(=O)[C@H](Cc2ccc(O)cc2)NC(=O)[C@H](Cc2ccc(C(N)=O)cc2)NC(=O)[C@](C)(CO)NC(=O)[C@H](Cc2c[nH]c3c(Cl)cccc23)NC(=O)[C@H](Cc2ccc(C(=O)O)cc2)NC(=O)[C@H](CC(N)=O)NC(=O)[C@H]2C[C@H](OCC(=O)O)CN2C(=O)[C@H](Cc2c[nH]c3ccccc23)NC(=O)[C@@H]2CNCCN2C(=O)[C@H](Cc2ccncc2)NC1=O [SEQ ID NO. 95] (cyclo([4Pal][Pip(4-aza)]W[dHyp](Carboxymethyl)N[Phe(4-COOH)][Trp(7-Cl)][αMeS][Phe(4-CONH2)]Y[Sar][Trp(βS-Me,7-OMe)][X1][Nle])) | 0.2 | 0.7 | > 1000 |
| CCCC[C@@H]1NC(=O)CSC[C@@H](C(N)=O)NC(=O)[C@H]([C@@H](C)c2c(C)[nH]c3ccccc23)NC(=O)CN(C)C(=O)[C@H](Cc2ccc(O)cc2)NC(=O)[C@H](Cc2ccc(C(N)=O)cc2)NC(=O)[C@](C)(CO)NC(=O)[C@H](Cc2c[nH]c3c(Cl)cccc23)NC(=O)[C@H](Cc2ccncc2)NC(=O)[C@H](CC(N)=O)NC(=O)[C@H](CCC(=O)O)N(C)C(=O)[C@H](Cc2c[nH]c3ccccc23)NC(=O)[C@@H]2CC[C@@H](O)CN2C(=O)[C@H](Cc2ccncc2)NC1=O [SEQ ID NO. 97] ({CH2CO}-[Nle][4Pal][Pip(5R-OH)]W[NMeE]N[4Pal][Trp(7-Cl)][αMeS][Phe(4-CONH2)]Y[Sar][X17]C-NH2; thioether N-14) | 0.08 | 0.9 | > 1000 |
| CCCC[C@@H]1NC(=O)CSC[C@@H](C(N)=O)NC(=O)[C@H]([C@@H](C)c2c[nH]c3c(OC)cccc23)NC(=O)CN(C)C(=O)[C@H](Cc2ccc(O)cc2)NC(=O)[C@H](Cc2ccc(C(=O)O)cc2)NC(=O)[C@](C)(CO)NC(=O)[C@H](Cc2c[nH]c3c(Cl)cccc23)NC(=O)[C@H](Cc2ccncc2)NC(=O)[C@H](CC(N)=O)NC(=O)[C@H](CCC(=O)O)N(C)C(=O)[C@H](Cc2c[nH]c3ncccc23)NC(=O)[C@H](CCOC)N(C)C(=O)[C@H](Cc2ccncc2)NC1=O [SEQ ID NO. 99] ({CH2CO}-[Nle][4Pal][NMehSer](Me)[Trp(7-aza)][NMeE]N[4Pal][Trp(7-Cl)][αMeS][Phe(4-COOH)]Y[Sar][Trp(βS-Me,7-OMe)]C-NH2; thioether N-14) | 0.15 | 3.7 | > 1000 |
| CCCC[C@@H]1NC(=O)[C@@H]2CC[C@@H](C2)NC(=O)[C@H]([C@@H](C)c2c[nH]c3c(OC)cccc23)NC(=O)CN(C)C(=O)[C@H](Cc2ccc(O)cc2)NC(=O)[C@H](Cc2ccc(C(N)=O)cc2)NC(=O)[C@](C)(CO)NC(=O)[C@H](Cc2c[nH]c3c(Cl)cccc23)NC(=O)[C@H](Cc2cncnc2)NC(=O)[C@H](CC(N)=O)NC(=O)[C@H](CCC(=O)O)N(C)C(=O)[C@H](Cc2c[nH]c3ccccc23)NC(=O)[C@@H]2CC[C@@H](O)CN2C(=O)[C@H](Cc2ccncc2)NC1=O [SEQ ID NO. 102] (cyclo([4Pal][Pip(5R-OH)]W[NMeE]N[Ala(pyrimidin-5-yl)][Trp(7-Cl)][αMeS][Phe(4-CONH2)]Y[Sar][Trp(βS-Me,7-OMe)][X1][Nle])) | 0.2 | 0.5 | > 1000 |
| CCCC[C@@H]1NC(=O)CSC[C@@H](C(N)=O)NC(=O)[C@H]([C@@H](C)c2c[nH]c3c(OC)cccc23)NC(=O)CN(C)C(=O)[C@H](Cc2ccc(O)cc2)NC(=O)[C@H](Cc2ccc(C(=O)O)cc2)NC(=O)[C@](C)(CO)NC(=O)[C@H](Cc2c[nH]c3c(Cl)cccc23)NC(=O)[C@H](Cc2ccc(C(=O)O)cc2)NC(=O)[C@H](CC(N)=O)NC(=O)[C@H](CCC(=O)O)N(C)C(=O)[C@H](Cc2c[nH]c3ccccc23)NC(=O)[C@H](CO)N(C)C(=O)[C@H](Cc2ccc(C(N)=O)cc2)NC1=O [SEQ ID NO. 123] ({CH2CO}-[Nle][Phe(4-CONH2)][NMeS]W[NMeE]N[Phe(4-COOH)][Trp(7-Cl)][αMeS][Phe(4-COOH)]Y[Sar][Trp(βS-Me,7-OMe)]C-NH2; thioether N-14) | 0.32 | 4.1 | > 1000 |

Reference: patent US20240287138A1, “CYCLIC PEPTIDES FOR INHIBITING TNF RECEPTOR 1 ACTIVITY” (Merck Sharp & Dohme LLC, priority 2023, published 2024)
